Reference: PubChem BioAssay (NCI)
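48-hour exposure; five concentrations; linearly interpolated endpoints. Here, GI50 denotes the concentration required for 50% inhibition of growth. TGI marks complete inhibition of growth.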

Tests used:
Experiment in all cases: NCI anticancer screen, dose series, 48 h
HCT-15 colon = test system: HCT-15 colon
A549 NSCLC = test system: A549 NSCLC
UACC-62 melanoma = test system: UACC-62 melanoma
SK-OV-3 ovarian = test system: SK-OV-3 ovarian
HOP-92 NSCLC = test system: HOP-92 NSCLC
HCC-2998 colon = test system: HCC-2998 colon
HT29 colon = test system: HT29 colon
M14 melanoma = test system: M14 melanoma
SNB-75 CNS = test system: SNB-75 CNS
SF-268 CNS = test system: SF-268 CNS
NCI-H226 lung = test system: NCI-H226 lung
K-562 leukemia = test system: K-562 leukemia
SNB-19 CNS = test system: SNB-19 CNS
OVCAR-8 ovarian = test system: OVCAR-8 ovarian
HCT-116 colon = test system: HCT-116 colon
LOX IMVI melanoma = test system: LOX IMVI melanoma
SK-MEL-28 melanoma = test system: SK-MEL-28 melanoma
SR leukemia = test system: SR leukemia
TK-10 renal = test system: TK-10 renal
OVCAR-3 ovarian = test system: OVCAR-3 ovarian
MALME-3M melanoma = test system: MALME-3M melanoma
MDA-MB-435 = test system: MDA-MB-435
NCI/ADR-RES ovarian = test system: NCI/ADR-RES ovarian
SN12C renal = test system: SN12C renal
T-47D breast = test system: T-47D breast
U251 CNS = test system: U251 CNS
HS 578T breast = test system: HS 578T breast
SW-620 colon = test system: SW-620 colon
COLO 205 colon = test system: COLO 205 colon

## CC(=O)Oc1ccccc1C(=O)Nc1cc(C(C)C)ccc1C
HCT-15 colon
  GI50: 4.13 µM
  TGI: 16.3 µM
A549 NSCLC
  GI50: 5.01 µM
  TGI: > 100 µM
UACC-62 melanoma
  GI50: 2.49 µM
  TGI: 7.59 µM
SK-OV-3 ovarian
  GI50: 5.88 µM
  TGI: 41.6 µM
HOP-92 NSCLC
  GI50: 2.54 µM
  TGI: 8.4 µM
HCC-2998 colon
  GI50: 4.62 µM
  TGI: 20 µM
HT29 colon
  GI50: 29.8 µM
  TGI: > 100 µM
M14 melanoma
  GI50: 5.31 µM
  TGI: 22.4 µM
SNB-75 CNS
  GI50: 4.09 µM
  TGI: 27.6 µM
SF-268 CNS
  GI50: 7.14 µM
  TGI: > 100 µM
NCI-H226 lung
  GI50: 2.55 µM
  TGI: 10.4 µM
K-562 leukemia
  GI50: 3.8 µM
  TGI: 56.5 µM
SNB-19 CNS
  GI50: 3.52 µM
  TGI: 23.1 µM
OVCAR-8 ovarian
  GI50: 4.9 µM
  TGI: > 100 µM
HCT-116 colon
  GI50: 4.49 µM
  TGI: 16.7 µM
LOX IMVI melanoma
  GI50: 3.94 µM
  TGI: 15.2 µM
SK-MEL-28 melanoma
  GI50: 3.93 µM
  TGI: 20.6 µM
SR leukemia
  GI50: 3.56 µM
  TGI: 30.9 µM
TK-10 renal
  GI50: 2.96 µM
  TGI: 12.8 µM
OVCAR-3 ovarian
  GI50: 4.38 µM
  TGI: > 100 µM
MALME-3M melanoma
  GI50: 2.97 µM
  TGI: 15.1 µM
MDA-MB-435
  GI50: 4.08 µM
  TGI: 23.4 µM
NCI/ADR-RES ovarian
  GI50: 3.74 µM
  TGI: 24.8 µM
SN12C renal
  GI50: 3.73 µM
  TGI: 20.7 µM
T-47D breast
  GI50: 2.62 µM
  TGI: > 100 µM
U251 CNS
  GI50: 4.07 µM
  TGI: 28.5 µM
HS 578T breast
  GI50: 4.67 µM
  TGI: 34.7 µM
SW-620 colon
  GI50: 9.34 µM
  TGI: 28.5 µM
COLO 205 colon
  GI50: 18.3 µM
  TGI: 36.2 µM
